Results from PubChem BioAssay (NCI).
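Interpolation was linear, between the two tested concentrations surrounding the appropriate level; five concentrations were tested over 48 hours in 96-well plates. TGI is the concentration that stops growth completely.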

How the values were obtained:
Experiment in all cases: NCI-60 cell line screen, 48 h
[1] = system: OVCAR-5 ovarian
[2] = system: NCI-H226 lung
[3] = system: SK-MEL-28 melanoma
[4] = system: SF-268 CNS
[5] = system: HT29 colon
[6] = system: COLO 205 colon
[7] = system: SK-OV-3 ovarian
[8] = system: HS 578T breast
[9] = system: UACC-257 melanoma
[10] = system: CCRF-CEM leukemia
[11] = system: NCI-H23 lung
[12] = system: ACHN renal
[13] = system: BT-549 breast
[14] = system: RPMI-8226 leukemia
[15] = system: MOLT-4 leukemia
[16] = system: TK-10 renal
[17] = system: MDA-N
[18] = system: MDA-MB-231 breast
[19] = system: A549 NSCLC
[20] = system: OVCAR-3 ovarian
[21] = system: CAKI-1 renal
[22] = system: SK-MEL-2 melanoma
[23] = system: SN12C renal
[24] = system: K-562 leukemia
[25] = system: SK-MEL-5 melanoma
[26] = system: NCI-H460 lung
[27] = system: HL-60(TB) leukemia
[28] = system: UO-31 renal
[29] = system: A498 renal
[30] = system: SNB-19 CNS
[31] = system: SF-539 CNS
[32] = system: OVCAR-8 ovarian
[33] = system: OVCAR-4 ovarian
[34] = system: NCI-H522 lung
[35] = system: SW-620 colon
[36] = system: HCT-116 colon
[37] = system: LOX IMVI melanoma
[38] = system: UACC-62 melanoma
[39] = system: HCT-15 colon
[40] = system: DU-145 prostate
[41] = system: U251 CNS
[42] = system: HOP-92 NSCLC
[43] = system: MALME-3M melanoma
[44] = system: PC-3 prostate
[45] = system: MCF7 breast
[46] = system: T-47D breast
[47] = system: 786-0 renal
[48] = system: NCI/ADR-RES ovarian
[49] = system: M14 melanoma
[50] = system: SF-295 CNS
[51] = system: MDA-MB-435
[52] = system: HCC-2998 colon
[53] = system: RXF 393 renal
[54] = system: IGROV1 ovarian
[55] = system: SR leukemia
[56] = system: SNB-75 CNS
[57] = system: KM12 colon
[58] = system: EKVX NSCLC
[59] = system: HOP-62 NSCLC

Compound: Cc1nn(C2OC(CO)C(O)C(F)C2O)c(=O)[nH]c1=O (stereo not drawn)
- TGI [1]: > 100 µM
- TGI [2]: > 100 µM
- TGI [3]: > 100 µM
- TGI [4]: > 100 µM
- TGI [5]: > 100 µM
- TGI [6]: > 100 µM
- TGI [7]: > 100 µM
- TGI [8]: > 100 µM
- TGI [9]: > 100 µM
- TGI [10]: > 100 µM
- TGI [11]: > 100 µM
- TGI [12]: > 100 µM
- TGI [13]: > 100 µM
- TGI [14]: > 100 µM
- TGI [15]: > 100 µM
- TGI [16]: > 100 µM
- TGI [17]: > 100 µM
- TGI [18]: > 100 µM
- TGI [19]: > 100 µM
- TGI [20]: > 100 µM
- TGI [21]: > 100 µM
- TGI [22]: > 100 µM
- TGI [23]: > 100 µM
- TGI [24]: > 100 µM
- TGI [25]: > 100 µM
- TGI [26]: > 100 µM
- TGI [27]: > 100 µM
- TGI [28]: > 100 µM
- TGI [29]: > 100 µM
- TGI [30]: > 100 µM
- TGI [31]: > 100 µM
- TGI [32]: > 100 µM
- TGI [33]: > 100 µM
- TGI [34]: > 100 µM
- TGI [35]: > 100 µM
- TGI [36]: > 100 µM
- TGI [37]: > 100 µM
- TGI [38]: > 100 µM
- TGI [39]: > 100 µM
- TGI [40]: > 100 µM
- TGI [41]: > 100 µM
- TGI [42]: > 100 µM
- TGI [43]: > 100 µM
- TGI [44]: > 100 µM
- TGI [45]: > 100 µM
- TGI [46]: > 100 µM
- TGI [47]: > 100 µM
- TGI [48]: > 100 µM
- TGI [49]: > 100 µM
- TGI [50]: > 100 µM
- TGI [51]: > 100 µM
- TGI [52]: > 100 µM

Compound: COc1cc(/C=C2\C(=O)N(c3cc(Cl)ccc3Cl)C(c3ccccc3)S2(=O)=O)cc(OC)c1OC (stereo not drawn)
- TGI [1]: > 100 µM
- TGI [2]: > 100 µM
- TGI [3]: > 100 µM
- TGI [53]: > 100 µM
- TGI [5]: > 100 µM
- TGI [6]: > 100 µM
- TGI [7]: > 100 µM
- TGI [9]: > 100 µM
- TGI [10]: > 100 µM
- TGI [11]: > 100 µM
- TGI [54]: > 100 µM
- TGI [12]: > 100 µM
- TGI [13]: > 100 µM
- TGI [55]: > 100 µM
- TGI [14]: > 100 µM
- TGI [15]: 99.4 µM
- TGI [16]: > 100 µM
- TGI [17]: 66.1 µM
- TGI [18]: > 100 µM
- TGI [19]: > 100 µM
- TGI [20]: > 100 µM
- TGI [56]: > 100 µM
- TGI [21]: > 100 µM
- TGI [22]: > 100 µM
- TGI [23]: > 100 µM
- TGI [24]: > 100 µM
- TGI [25]: > 100 µM
- TGI [26]: > 100 µM
- TGI [27]: 51.7 µM
- TGI [28]: > 100 µM
- TGI [29]: > 100 µM
- TGI [57]: > 100 µM
- TGI [30]: > 100 µM
- TGI [31]: > 100 µM
- TGI [32]: > 100 µM
- TGI [33]: > 100 µM
- TGI [34]: > 100 µM
- TGI [35]: > 100 µM
- TGI [36]: > 100 µM
- TGI [37]: > 100 µM
- TGI [38]: > 100 µM
- TGI [39]: > 100 µM
- TGI [58]: > 100 µM
- TGI [40]: > 100 µM
- TGI [41]: > 100 µM
- TGI [42]: > 100 µM
- TGI [43]: > 100 µM
- TGI [44]: > 100 µM
- TGI [45]: > 100 µM
- TGI [59]: > 100 µM
- TGI [46]: > 100 µM
- TGI [47]: > 100 µM
- TGI [48]: > 100 µM
- TGI [49]: > 100 µM
- TGI [50]: > 100 µM
- TGI [51]: 96.2 µM
- TGI [52]: > 100 µM

Compound: Clc1ccc(CSc2ncnc3c2ncn3C2CCCCO2)cc1 (stereo not drawn)
- TGI [1]: > 100 µM
- TGI [2]: 76.7 µM
- TGI [3]: 48.8 µM
- TGI [4]: 77.4 µM
- TGI [53]: 80.2 µM
- TGI [5]: 35.5 µM
- TGI [6]: 56.9 µM
- TGI [7]: 55.6 µM
- TGI [8]: 76.4 µM
- TGI [9]: 24.9 µM
- TGI [11]: 64.8 µM
- TGI [54]: > 100 µM
- TGI [12]: 29.8 µM
- TGI [13]: 68.2 µM
- TGI [14]: 39.4 µM
- TGI [16]: 60.4 µM
- TGI [17]: 43.8 µM
- TGI [18]: 86.3 µM
- TGI [19]: > 100 µM
- TGI [20]: 32.5 µM
- TGI [56]: 58.1 µM
- TGI [21]: > 100 µM
- TGI [22]: 32 µM
- TGI [23]: 38.7 µM
- TGI [24]: 66.1 µM
- TGI [25]: 22.9 µM
- TGI [26]: 36.7 µM
- TGI [28]: 4.36 µM
- TGI [29]: 31.9 µM
- TGI [57]: 46.9 µM
- TGI [30]: > 100 µM
- TGI [32]: 71.5 µM
- TGI [33]: > 100 µM
- TGI [34]: 33.7 µM
- TGI [35]: > 100 µM
- TGI [36]: 53.9 µM
- TGI [37]: 36.3 µM
- TGI [38]: 30 µM
- TGI [39]: > 100 µM
- TGI [58]: 50.1 µM
- TGI [40]: > 100 µM
- TGI [41]: 44.9 µM
- TGI [42]: 89.2 µM
- TGI [43]: 38.4 µM
- TGI [44]: 74.7 µM
- TGI [45]: 83.7 µM
- TGI [59]: 45.7 µM
- TGI [46]: 57.8 µM
- TGI [47]: 56.2 µM
- TGI [48]: 63.2 µM
- TGI [49]: 31 µM
- TGI [50]: 36.7 µM
- TGI [51]: 38.1 µM
- TGI [52]: 38.1 µM
